Our source for the Ki values is BindingDB's records for doi:10.1021/jm049161u (Pfizer, 2006).

Each structure is given as a SMILES string.

Chain of Peptidyl-prolyl cis-trans isomerase FKBP1A (Bos taurus, UniProt P18203) (P18203 whole entry): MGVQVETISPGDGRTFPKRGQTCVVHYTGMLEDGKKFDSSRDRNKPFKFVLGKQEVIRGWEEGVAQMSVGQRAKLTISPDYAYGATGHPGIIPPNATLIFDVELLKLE
Chain of Peptidyl-prolyl cis-trans isomerase FKBP1A (Homo sapiens, UniProt P62942) (P62942 whole entry): as the sequence (P18203 whole entry) above, with V50M, N95H, I99V counted along it

One experiment addresses Peptidyl-prolyl cis-trans isomerase FKBP1A (Bos taurus, UniProt P18203). Briefly: Peptidyl Prolyl Isomerase (PPIase) Inibition Assay.
Details: not given
The procedure: (§1) It is based on the observation that chymotrypsin cleaves the C-terminal amide bond only in the trans conformer of the chromogenic substrate. The rapid hydrolysis perturbs the cis-trans conformational equilibrium, which allows one to monitor the PPIase-catalyzed cis-to-trans isomerization. […] Rate constants were generated from the absorbance versus time plots at 8-12 compound concentrations. The Kiapp was determined from the corrected rate constants using an IC50 equation or a tight-binding equation by Morrison.
`COc1cc2c(c(OC)c1)C1C3CCCC(C(=O)N1CC2)N3C(=O)Nc1ccccc1` (configuration not stated) [4,6-dimethoxy-12-oxo-N-phenyl-11,17-diazatetracyclo[11.3.1.0^{2,11}.0^{3,8}]heptadeca-3(8),4,6-triene-17-carboxamide] came in with a Ki of 2700 nM.

`COc1cc2c(c(OC)c1)C1C3CCCC(C(=O)N1CC2)N3C(=O)Nc1ccccc1OC` (configuration not stated) [4,6-dimethoxy-N-(2-methoxyphenyl)-12-oxo-11,17-diazatetracyclo[11.3.1.0^{2,11}.0^{3,8}]heptadeca-3(8),4,6-triene-17-carboxamide] came in with a Ki of 357 nM.

`COc1cc2c(c(OC)c1)C1C3CCCC(C(=O)N1CC2)N3C(=O)Nc1ccccc1C` (configuration not stated) [4,6-dimethoxy-N-(2-methylphenyl)-12-oxo-11,17-diazatetracyclo[11.3.1.0^{2,11}.0^{3,8}]heptadeca-3(8),4,6-triene-17-carboxamide] came in with an inhibition constant (Ki) of 330 nM.

The compound `COc1cc2c(c(OC)c1)C1C3CCCC(C(=O)N1CC2)N3C(=O)Nc1ccc([N+](=O)[O-])cc1` (configuration not stated) [4,6-dimethoxy-N-(4-nitrophenyl)-12-oxo-11,17-diazatetracyclo[11.3.1.0^{2,11}.0^{3,8}]heptadeca-3(8),4,6-triene-17-carboxamide] yielded a Ki of 772 nM. This Ki is about 2.3-fold higher than that of the compound before.

For `COc1cc(OC)cc(N2C=C3C4CCCC(C(=O)N3CC2=O)N4C(=O)C(=O)c2cc(OC)c(OC)c(OC)c2)c1` (configuration not stated) [4-(3,5-dimethoxyphenyl)-13-[2-oxo-2-(3,4,5-trimethoxyphenyl)acetyl]-4,7,13-triazatricyclo[7.3.1.0^{2,7}]tridec-2-ene-5,8-dione], the Ki was found to be 54 nM.

Take `COc1cc2c(c(OC)c1)C1C3CCCC(C(=O)N1CC2)N3C(=O)Nc1ccc(F)cc1F` (configuration not stated) [N-(2,4-difluorophenyl)-4,6-dimethoxy-12-oxo-11,17-diazatetracyclo[11.3.1.0^{2,11}.0^{3,8}]heptadeca-3(8),4,6-triene-17-carboxamide]: the Ki was determined as 7000 nM.

The target of a further experiment is Peptidyl-prolyl cis-trans isomerase FKBP1A (Homo sapiens, UniProt P62942). The experiment in a line: Peptidyl Prolyl Isomerase (PPIase) Inibition Assay. The conditions noted are these: pH 8; 15 °C. How it is done:
as §1
The compound `COc1cc2c(c(OC)c1)C1C3CCCC(C(=O)N1CC2)N3C(=O)C(=O)c1cc(Cl)ccc1Cl` (configuration not stated) [1-(2,5-dichlorophenyl)-2-{4,6-dimethoxy-12-oxo-11,17-diazatetracyclo[11.3.1.0^{2,11}.0^{3,8}]heptadeca-3(8),4,6-trien-17-yl}ethane-1,2-dione] had an inhibitory constant (Ki) of 8100 nM.

The term Ki denotes a measure of affinity in units of concentration, obtained from inhibition or displacement.
